These results are taken from article PMC12480552 (Scientific Reports, 2025).

Read-outs that look alike come from different tables or passages of the source.

The nature of one series: in vivo. Conditions: male, rhesus monkey; for Kp / Kp uu: brain. As for the experimental part: Animals were randomized using the GSK Randomization App 2.0, which is an internal software tool that uses the ‘sample’ function in R to randomly shuffle animal IDs, then assigns them to treatment groups to ensure unbiased allocation.
Before each dose, animals were lightly sedated with an intramuscular injection of ketamine (5–10 mg/kg), and a blood sample was drawn. […] NHPs were euthanized by administering an overdose of injected sodium pentobarbital IV (150–200 mg/kg) and confirmed by thoracotomy and exsanguination. Terminal plasma, cerebrospinal fluid, and brain tissue were collected at necropsy. […] The brain was cut into six roughly 1-cm thick coronal segments before snap-freezing by floating on liquid nitrogen. The right hemispheres of the four interior coronal brain segments were cryosectioned and analyzed by matrix-assisted laser desorption/ionization mass spectrometry imaging (MALDI MSI) to quantitatively assess the tissue distribution of the dosed compounds[40]–[43]. After MALDI MSI analysis, tissue sections were stained with hematoxylin and eosin (H&E) for correlation of ion images with underlying tissue histology.
Brain tissue was weighed in polypropylene tubes, then phosphate-buffered saline (PBS) was added to the tissue sample before homogenization (1:4 wt: vol).
The LC-MS/MS system includes an API-6500 triple quadrupole mass spectrometer (Sciex, Framingham, MA) and an ExionLC system (ExionLC Controller, ExionLC AD Column Oven, ExionLC AD Pump, and ExionLC AD Multiplate Sampler; all from Sciex). Data were acquired and processed using Analyst® 1.7.2 software (Sciex). An Acquity UHPLC BEH C18 analytical column (1.7-µm, 2.1 × 50 mm; Waters, Milford, MA) was applied in sample analysis.
First, the brain tissue partition coefficient Kp, brain was calculated using Eq. (1).
Where Css, brain is the mean steady-state total drug concentration in brain tissue, and Css, plasma is the mean steady-state total drug concentration in plasma (both measured by LC-MS/MS). […] Finally, Kp, uu, brain was calculated using Eq. (2).2 [drawing 2]

A short description of series [1]: MALDI MSI of brain sections, mouse model of brain metastasis (MDA231-BrM2-831). Type of series: in vivo, NCr nude mice. The text has this: A luciferase-transfected human breast adenocarcinoma cell line (MDA 231-BRM2-831) was used to generate a metastatic brain tumor model in female athymic nude mice. […] NCr nude mice (strain: CrTac: NCr-Foxn1^nu; female; 5-7 weeks old; Taconic Biosciences (Germantown, NY)) were used for these studies. A power analysis was completed by a statistician to determine the appropriate sample sizes for each group to measure a statistically significant. […] Control mice (n = 10) underwent a sham IC procedure (needle insertion into the ventricle without cell injection. All mice were monitored for tumor development by bioluminescence imaging (BLI) approximately once weekly for ~ 45 days, beginning 1 h after cell injection. In vivo BLI was performed at ~ 10 min post-luciferin injection (corresponding to the peak bioluminescent signal) using an IVIS Spectrum-CT system (PerkinElmer, Waltham, MA). Imaging parameters were set to automatic exposure in the Living Image software, while the binning (8) and aperture (open f-stop) remained at the default settings for all BLI acquisitions. The imaging frequency was increased to twice weekly for mice that developed brain metastases (BMs) as indicated by increased bioluminescence in the cranial region. […] The exact tumor size was not measured as an endpoint of this study. […] Two hours after the final dose, mice were euthanized by CO2 asphyxiation. At necropsy, a terminal blood sample was collected via cardia puncture, and the brains were harvested and snap-frozen by floating on liquid nitrogen. […] From each plane, serial tissue sections were collected for MALDI MSI and for H&E staining, and immunohistochemistry (IHC) staining. Tissue trimmings from between each plane were collected, homogenized, and submitted for bioanalysis in addition to the terminal plasma samples. For the mouse metastases study, tissue sections were collected from five horizontal tissue planes starting from roughly 1 mm from the top of the tissue, and each subsequent tissue plane was separated by roughly 1 mm. […] For MALDI MSI analysis, sections were thaw-mounted onto indium tin oxide-coated slides (Delta Technologies, Ltd, Loveland, CO). For H&E and IHC analyses, tissue sections were collected onto superfrost glass slides (Fisher Scientific, Waltham, MA). Brain tissue trimmings from between each of the horizontal planes were pooled and collected into a pre-weighed vial for homogenization and LC-MS/MS bioanalysis (described in detail later). […] Arraymold, Ogden, UT). […] DMSO: […] […] Ion images were loaded into […] […] Statistical significance was set at p < 0.05.

For series [2] the following is noted: cited from earlier work.
For series [3] the following is noted: cited from earlier work. This is another data set of the same source.
Setting [4] is: BM mice (niraparib n = 4, olaparib n = 3), oral once daily 5 days, niraparib 35 mg/kg or olaparib 50 mg/kg, 2 h after final dose, LOD 70 ng/g niraparib, 170 ng/g olaparib.

`NC(=O)c1cccc2cn(-c3ccc([C@@H]4CCCNC4)cc3)nc12` [Niraparib] displayed a Kp in “in vivo” (Mean Kp) of 3.18. Also, the Kp uu in “in vivo” (Mean Kp) turned out to be 0.313. In addition, the concentration at 2 h in series [1] (female, NCr nude (CrTac:NCr-Foxn1nu), mouse, brain (sections), oral, 35 mg/kg, read-out: MALDI MSI Brain sections, mean (SD)) is 519 ng/g; in series [1] (female, NCr nude (CrTac:NCr-Foxn1nu), mouse, brain metastasis tumor tissue, oral, 35 mg/kg, all tumor-containing sections (n = 42) in all BM animals (n = 4), niraparib 35 mg/kg, read-out: MALDI MSI mean localized tumor concentration) it was about 1700 ng/g; in series [1] (female, NCr nude (CrTac:NCr-Foxn1nu), mouse, brain tumor, oral, 35 mg/kg, read-out: MALDI MSI Brain tumors, mean (SD)), 2400 ng/g; in series [1] (female, NCr nude (CrTac:NCr-Foxn1nu), mouse, brain ventricles, oral, 35 mg/kg, all ventricle-containing sections (n = 48) in all BM animals, niraparib 35 mg/kg, read-out: MALDI MSI mean concentration in the ventricles) it was about 1860 ng/g; in series [1] (female, NCr nude (CrTac:NCr-Foxn1nu), mouse, brain, oral, 35 mg/kg, read-out: MALDI MSI Brain sections, mean (SD)), 487 ng/g; in series [1] (female, NCr nude (CrTac:NCr-Foxn1nu), mouse, whole brain (sections), oral, 35 mg/kg, Brain Metastases, Mouse 1, Fig. 2B, read-out: MALDI MSI Mean Conc., whole brain, individual mouse), 430 ng/g. Further, the concentration at 2 h amounted to 640 ng/g in series [1] (female, NCr nude (CrTac:NCr-Foxn1nu), mouse, whole brain (sections), oral, 35 mg/kg, Brain Metastases, Mouse 2, Fig. 2B, read-out: MALDI MSI Mean Conc., whole brain, individual mouse); 540 ng/g in series [1] (female, NCr nude (CrTac:NCr-Foxn1nu), mouse, whole brain (sections), oral, 35 mg/kg, Brain Metastases, Mouse 3, Fig. 2B, read-out: MALDI MSI Mean Conc., whole brain, individual mouse); 340 ng/g in series [1] (female, NCr nude (CrTac:NCr-Foxn1nu), mouse, whole brain (sections), oral, 35 mg/kg, Brain Metastases, Mouse 4, Fig. 2B, read-out: MALDI MSI Mean Conc., whole brain, individual mouse); 400 ng/g in series [1] (female, NCr nude (CrTac:NCr-Foxn1nu), mouse, whole brain (sections), oral, 35 mg/kg, No Brain Metastases, Mouse 8, Fig. 2B, read-out: MALDI MSI Mean Conc., whole brain, individual mouse); 560 ng/g in series [1] (female, NCr nude (CrTac:NCr-Foxn1nu), mouse, whole brain (sections), oral, 35 mg/kg, No Brain Metastases, Mouse 9, Fig. 2B, read-out: MALDI MSI Mean Conc., whole brain, individual mouse); 600 ng/g in series [1] (female, NCr nude (CrTac:NCr-Foxn1nu), mouse, whole brain (sections), oral, 35 mg/kg, No Brain Metastases, Mouse 10, Fig. 2B, read-out: MALDI MSI Mean Conc., whole brain, individual mouse). The Kp at 2 h in series [1] (female, NCr nude (CrTac:NCr-Foxn1nu), mouse, oral, 35 mg/kg, BM mice, mean brain tumor ROI total concentration by MALDI MSI versus terminal plasma total concentration) turned out to be 0.945. In addition, the “Kp, brain” value in series [2] (P-gp knockout mice) is reported as 1.20; in series [2] (P-gp/BCRP knockout mice) it was 1.46; in series [2] (wild-type mice) it was 0.20. Moreover, the cell membrane permeability result in series [3] was “high”.

For `O=C(c1cc(Cc2n[nH]c(=O)c3ccccc23)ccc1F)N1CCN(C(=O)C2CC2)CC1` [Olaparib], in the series “in vivo”, the “Kp, brain” value is given as 0.044 and the “Kp, uu, brain” value was determined as 0.028. In “in vivo” (Kp), this compound had a Kp of 0.037 and a Kp uu of 0.024. Besides, in “in vivo” (Mean Kp), the Kp was 0.041 and the Kp uu was 0.026. Besides, in series [1] (setting [4]), the “MALDI MSI Brain sections, mean (SD)” value is reported as “< LOD” and the “MALDI MSI Brain tumors, mean (SD)” value is reported as “< LOD”. Besides, the “MALDI MSI Brain sections, mean (SD)” value in series [1] (No BM mice (n = 3), oral once daily 5 days, niraparib 35 mg/kg or olaparib 50 mg/kg, 2 h after final dose, LOD 70 ng/g niraparib, 170 ng/g olaparib) was “< LOD”.
